Experimental data reported in patent US20240288446A1, “METHOD FOR DIAGNOSING FIBRINOLYTIC INSUFFICIENCY RELATED TO NEUTROPHIL EXTRACELLULAR TRAPS” (Hôpitaux Universitaires de Strasbourg, priority 2019, published 2024).
“Also recorded” adds a separate entry of the source.

Key:
Format in all cases: biochemical
[1] = target: T1, HNE-DNA complexes of NETs (Homo sapiens, UniProt P08246); assay: Plasminogen fragmentation by NETs-bound elastase (SDS-PAGE, Western blot); conditions: plasminogen 1 μM; NETs pre-incubated with inhibitor
T1 construct: endogenous in cells
T1 sequence (P08246 30-247 limits assumed): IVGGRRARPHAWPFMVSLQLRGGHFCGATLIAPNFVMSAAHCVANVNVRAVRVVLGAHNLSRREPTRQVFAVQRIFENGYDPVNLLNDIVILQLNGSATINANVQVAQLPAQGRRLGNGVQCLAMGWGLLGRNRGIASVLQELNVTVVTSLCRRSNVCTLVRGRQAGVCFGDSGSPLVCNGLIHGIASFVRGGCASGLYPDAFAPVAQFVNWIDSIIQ
Description: FIGS. 2A-C represent NETs-associated elastase digests plasminogen into fragments. Samples were analyzed by SDS-PAGE and Western blot using a specific sheep antibody directed against human plasminogen. FIG. 2A-B. Plasminogen fragmentation by NETs HNE•DNA complexes after 30 to 240 min (A) and 2 to 10 hours (B) of incubation. C. Western blot of purified plasminogen (Pg), plasmin (Pn) (left panel) and HNE-DNA-derived plasminogen fragments (middle panel). Plasminogen fragments produced by PMA stimulated neutrophils (middle panel) were not observed (right panel) in the presence of the elastase-specific inhibitor (EI) N-Methoxysuccinyl-Ala-Ala-Pro-Val-chloromethyl ketone.
Fibrin-NETs matrices were achieved by activation with PMA of neutrophils seeded onto fibrin surfaces prepared as described above. The neutrophils were seeded onto the fibrin matrix at 200 000 cells per well and were stimulated with PMA after 1 h plating as indicated above. […] Initial velocities of the reaction were calculated using an ad hoc computer program. • 2. […] HNE activity in samples collected in HBSS was measured with the chromogenic substrate MeO-Suc-AAPV-pNA (100 μl per well, 1.5 mM final concentration in HBSS) as indicated above. […] Signal was detected using the ECL kit from Amersham (Arlington Heights, U.K.) and the Curix-60-AGFA for development. […]

[2] = target: T2, HNE-DNA complexes of fibrin-NETs lattice (Homo sapiens, UniProt P08246); assay: Plasminogen activation by fibrin-bound tPA on fibrin-NETs matrices (plasmin formation)
T2 construct: endogenous in cells
T2 sequence (P08246 30-247 limits assumed): T1 sequence (P08246 30-247 limits assumed)
Description: FIGS. 3A-D represent the decrease in tPA-mediated plasmin formation by NETs formed onto fibrin. Neutrophils isolated from human blood were seeded onto fibrin in a 96-wells microtitre plate and activated by 50 nM PMA in HBSS. After binding of tPA to fibrin, plasminogen at varying concentrations was added to the interlaced NETs-fibrin structure. FIG. 3A-B. Plasmin formation from plasminogen (Pg) at 50 nM (A) and 500 nM (B) was monitored by measuring the released of pNA the plasmin-selective chromogenic substrate at 0.75 mM. Plasmin formation on fibrin. ● Plasmin formation on fibrin-NETs. ▪ Plasmin formation on fibrin-NETs treated with the elastase inhibitor MeO-Suc-AAPV-CMK. FIG. 3 C. After plasminogen activation the wells were carefully washed and the amount of fibrin-bound plasmin detected by adding 0.75 mM of the plasmin-selective chromogenic substrate. Grey bars: plasmin bound to the fibrin-NETs surface. […]
Fibrin-NETs matrices were achieved by activation with PMA of neutrophils seeded onto fibrin surfaces prepared as described above. […] Initial velocities of the reaction were calculated using an ad hoc computer program. • 2. […] HNE activity in samples collected in HBSS was measured with the chromogenic substrate MeO-Suc-AAPV-pNA (100 μl per well, 1.5 mM final concentration in HBSS) as indicated above. […]

[3] = target: T1, HNE-DNA complexes of NETs; assay: Activity of DNA-bound elastase on NETs, chromogenic substrate MeO-Suc-AAPV-pNA; conditions: NETs from PMA-stimulated neutrophils, MeO-Suc-AAPV-CMK 100 μM, α1-PI 10 μM, aprotinin 10 μM (FIG. 1B legend)
Description: FIGS. 1A-C represent Neutrophil Extracellular Traps (NETs) generated from neutrophils seeded onto a fibrin matrix: DNA and HNE activity of NETs are shown. Neutrophils isolated from human blood and seeded on wells of a 96-wells microtiter plate containing or not a fibrin matrix, were activated by 50 nM PMA in HBSS. After 4 hours incubation at 37° C. in a humidified 5% CO2 incubator, the plate was centrifuged at 3000 g for 5 min, the supernatant was collected and cells and NETs in the well stained with a 10 μg/ml solution of Hoechst 33342 a minor-groove DNA binder. Elastase activity bound to NETs was detected with the chromogenic substrate N-methoxysuccinyl-Ala-Ala-Pro-Val-p-nitroanilide. FIG. 1A represents fluorescence microscopy images (X20) of nuclei and extracellular DNA fibers stained with Hoechst. Scale bars: 20 μm. […] NETs: neutrophil extracellular traps generated in the absence of fibrin. […] C. […] Purified HNE was incubated (15 min) at different concentrations in buffer or plasma before activity measurements with 1.5 mM of the chromogenic substrate N-methoxysuccinyl-Ala-Ala-Pro-Val-p-nitroanilide.
NETs were identified by (1) DNA staining with a 10 μg/ml solution of Hoechst 33342 and (2) measuring the activity of DNA-bound elastase.
To detect elastase bound to NETs, the substrate MeO-Suc-AAPV-pNA (100 μl per well, 1.5 mM final concentration in HBSS) was incubated with NETs after two gentle washes with HBSS. DNA-bound HNE activity was detected in a multi-well plate counter at 37° C. by measuring the release of p-nitroaniline (pNA) at A405 nm.

effect on proteolytic activity of HNE-DNA complexes of NETs ([3]; listed as aprotinin) | Substance | effect on conversion of plasminogen into fragments by NETs [1] | decrease of plasmin formed and remaining bound to untreated fibrin-NETs lattices compared with lattices in the presence of inhibitor ([2]; FIG. 3C) | plasmin formation / fibrinolytic activity at the fibrin-NET lattice ([2]; fibrin-NET lattice pre-incubated with inhibitor, tPA bound to fibrin) | effect on proteolytic activity of HNE-DNA complexes of NETs [3]
 | N-(Methoxysuccinyl)-L-alanyl-L-alanyl-L-prolyl-L-valine chloromethylketone [MeO-Suc-AAPV-CMK] | abolished the conversion of plasminogen into fragments; also recorded: plasminogen fragments were absent | around 50% | restored to control values | completely blocked; also recorded: completely inhibited
unable to modify | Aprotinin | unable to modify |  |  | without effect
